One molecule from ChEMBL document CHEMBL1157898 (Bioorg Med Chem Lett, 2010) can be followed below.

The series has as its system H4. The series can be described thus: Toxicity in human H4 cells at 10 uM. Type of series: cell-based. Conditions: h4, 10 µM.

The structures appear in SMILES notation.

Turning to `COc1cc(OC)c(C=C2C(O)=Nc3ccccc32)c(OC)c1` [IC261], the Activity was 40 µM.
